Test results reported in patent publication US20160168724A1, “POLYVINYLBUTYRAL COATING CONTAINING THIOL CORROSION INHIBITORS” (The Boeing Company, priority 2014, published 2016).

Assay: Linear sweep voltammetry with rotating disc electrode, inhibitors in electrolyte solution
Conditions: for Current (A) @ −800 mV: 10 ppm inhibitor solution in 5% NaCl-PBS pH 7, copper rotating disc electrode 1000 rpm, LSV; for IE (inhibitor efficiency, Equation 1): 10 ppm inhibitor solution, from current at -800 mV versus blank
Protocol: Linear sweep voltammetry (LSV) and chronoamperometry were used to evaluate the performance of the thio-containing corrosion inhibitors as electroactive cathodic-thio compounds. The LSV experiments were performed with a rotating disc electrode (RDE). The rotating disc electrode technique provides certain benefits in measurement sensitivity because the technique indicates current at steady state with a kinetic flow over the electrode rather than a static measurement in solution (FIG. 1).
Inhibitor performance was measured based on the ability of the compound to prevent the oxygen reduction reaction in electrolyte using a rotating disc electrode. If current values were closer to zero then the inhibitor was considered to be appropriate because the oxygen reduction reaction, which is an indication of corrosion, was sequestered or stopped. Solutions of known concentration (e.g., containing 10 ppm inhibitor) were used to compared inhibitors. Inhibitor efficiency (IE), is calculated using Equation 1 (IE corrects for contributions not attributable to the inhibitor (e.g., electrolyte)).
Inhibitor Efficiency=(iinhibitor−iblank)/iblank (Equation 1)
Performance of different inhibitors (10 ppm solutions) was evaluated by measuring current value (A) at −800 mV and determining inhibitor efficiency, the results of which are shown in Table 5.
A 5% (wt/wt) sodium chloride solution (that is, electrolyte system A of Table 7) was selected to simulate a highly corrosive environment and potentially accelerate the corrosion. The electrolyte was buffered to eliminate changes in pH from effecting inhibitor performance measurements. A pH of 7 was selected because it was similar to seawater.
The 5% (wt/wt) (0.9 M) sodium chloride electrolyte solution was generated by adding reagent grade sodium chloride to <18 M·cm resistivity to deionized water (52.6 gm NaCl to 1 liter water). The solution was then buffered to neutral pH 7 with phosphate buffered saline tablets from Sigma Aldrich-(P4417-100TAB), 1 tablet per 200 ml of solution Inhibitors were dissolved in an 5% sodium chloride electrolyte buffered with phosphate buffered saline to maintain the pH at 7. Ten parts per million (10 ppm) solutions were generated by taking an aliquot of solutions with a higher known inhibitor concentration and diluting to make a 10 ppm solution. In most cases the higher concentration target was 50 ppm. The initial solutions were generated by adding 0.050 gm of inhibitor in a 5% NaCl buffered electrolyte in a one liter volumetric flask. Not all of the inhibitor dissolved, so the solution was filtered to calculate the solubility and the actual concentration. The solutions were stirred overnight with a stir bar and then filtered using a pre-weighed, 4.7 cm diameter, 1.0 micron pore size glass fiber filters (Whatman Grade GF/B 1821-047) and a Millipore glass filter funnel. The glass filter and clamp funnel was an improvement to previous filter methods that utilized a Buchner funnel and paper filters. After the filtrate was collected, the funnel and filter paper were rinsed thoroughly with deionized water to ensure that no electrolyte salts were trapped in the filter and that residual solids on the sides of the filter funnel were collected. The filter with solids was dried over night in an approximately 120° C. oven, allowed to come to room temperature in a desiccator, and weighed. The actual solution concentration was calculated based on the actual inhibitor dissolved. Concentration calculations also accounted for residual salts that are sometimes still present in the filter. These were measured by running a blank. An aliquot was taken of the 50 ppm solution and a final 10 ppm solution generated. […]

| Molecule | Current (A) @ −800 mV | IE (inhibitor efficiency, Equation 1) |
| --- | --- | --- |
| Sc1nnc(SSc2nnc(S)s2)s1 [Vanlube 829, 5,5′-Dithiobis(1,3,4-Thiadiazole-2(3H)-thione)] | −2.68 × 10^−4 A | 0.47 |
| N1=C2SSc3nnc(s3)SSC(=N1)S2 [BDTD, Bis-[2,5-dithio-1,3,4-thiadiazole]] | −3.00 × 10^−4 A | 0.40 |
| Sc1nnc([S][Al]([S]c2nnc(S)s2)[S]c2nnc(S)s2)s1 [1:3AlDMcT, [Al:2,5-dimercapto-1,3,4-thiadiazole (1:3)]] | −2.25 × 10^−4 A | 0.55 |
| [Al:2,5-dimercapto-1,3,4-thiadiazole (3:1)] [3:1 AlDMcT] | −2.59 × 10^−4 A | 0.49 |
| Sc1nnc([S][Al]([S]c2nnc(S)s2)[S]c2nnc(S)s2)s1 [1:3AlDMcT (acid), [Al:2,5-dimercapto-1,3,4-thiadiazole (1:3)] (acid)] | −2.83 × 10^−4 A | 0.44 |
| Sc1nsc(S)n1 [1,2,4 DMcT, 1,2,4-Thiadiazole-3,5-dithiol] | −1.53 × 10^−4 A | 0.70 |
